Square brackets hold non-standard residues; d marks the D form. Peptide text beside a SMILES is read from it. * marks the point of attachment. ξ: configuration not given here. 1Nal = N[C@@H](Cc1cccc2ccccc12)C(=O)O; hPhe = N[C@@H](CCc1ccccc1)C(=O)O; tBuAla = CC(C)(C)C[C@H](N)C(=O)O; Ile(3ξ) = CCC(C)[C@H](N)C(=O)O; ξPhg = NC(C(=O)O)c1ccccc1; ξTle = CC(C)(C)C(N)C(=O)O; Cbz = O=C(OCc1ccccc1)*; ξL = CC(C)CC(N)C(=O)O; CH2Cl = ClC*
Tests used:
Calpain 1 (Homo sapiens) = Calpain 1 (Homo sapiens) (UniProt P04632+P07384); assay: Apparent second order rate constant for inhibition of calpain-1 by fluorogenic assay.; assay type: protein-complex assay
[1] = target: Cathepsin B (Homo sapiens) (UniProt P07858); assay: Apparent second order rate constant for inhibition of cathepsin B by fluorogenic assay.
[2] = target: Procathepsin L (Homo sapiens) (UniProt P07711); assay: Inhibition of cathepsin L (fluorogenic assay), apparent second order rate constant
Procathepsin L (Homo sapiens), sequence (P07711 114-333 limits assumed): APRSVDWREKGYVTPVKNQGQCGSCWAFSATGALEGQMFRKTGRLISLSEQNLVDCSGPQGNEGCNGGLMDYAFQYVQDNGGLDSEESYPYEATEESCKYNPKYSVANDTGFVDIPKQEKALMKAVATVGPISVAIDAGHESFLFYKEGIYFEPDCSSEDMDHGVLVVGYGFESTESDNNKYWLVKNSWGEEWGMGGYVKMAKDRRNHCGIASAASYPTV

Calpain 1 = Calpain 1 (Homo sapiens, UniProt P07384); assay: Inhibition of Calpain 1 by [3H]acetyl-casein assay; assay type: protein-complex assay
Calpain 1, sequence (P04632 whole entry): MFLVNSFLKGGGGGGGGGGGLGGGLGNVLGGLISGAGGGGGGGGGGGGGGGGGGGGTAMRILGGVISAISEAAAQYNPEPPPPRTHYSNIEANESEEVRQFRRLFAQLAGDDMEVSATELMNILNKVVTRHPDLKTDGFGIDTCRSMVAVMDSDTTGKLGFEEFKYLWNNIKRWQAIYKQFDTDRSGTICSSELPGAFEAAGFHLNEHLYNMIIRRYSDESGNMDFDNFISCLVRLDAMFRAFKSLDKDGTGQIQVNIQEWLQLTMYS
Calpain 1, sequence (P07384 whole entry): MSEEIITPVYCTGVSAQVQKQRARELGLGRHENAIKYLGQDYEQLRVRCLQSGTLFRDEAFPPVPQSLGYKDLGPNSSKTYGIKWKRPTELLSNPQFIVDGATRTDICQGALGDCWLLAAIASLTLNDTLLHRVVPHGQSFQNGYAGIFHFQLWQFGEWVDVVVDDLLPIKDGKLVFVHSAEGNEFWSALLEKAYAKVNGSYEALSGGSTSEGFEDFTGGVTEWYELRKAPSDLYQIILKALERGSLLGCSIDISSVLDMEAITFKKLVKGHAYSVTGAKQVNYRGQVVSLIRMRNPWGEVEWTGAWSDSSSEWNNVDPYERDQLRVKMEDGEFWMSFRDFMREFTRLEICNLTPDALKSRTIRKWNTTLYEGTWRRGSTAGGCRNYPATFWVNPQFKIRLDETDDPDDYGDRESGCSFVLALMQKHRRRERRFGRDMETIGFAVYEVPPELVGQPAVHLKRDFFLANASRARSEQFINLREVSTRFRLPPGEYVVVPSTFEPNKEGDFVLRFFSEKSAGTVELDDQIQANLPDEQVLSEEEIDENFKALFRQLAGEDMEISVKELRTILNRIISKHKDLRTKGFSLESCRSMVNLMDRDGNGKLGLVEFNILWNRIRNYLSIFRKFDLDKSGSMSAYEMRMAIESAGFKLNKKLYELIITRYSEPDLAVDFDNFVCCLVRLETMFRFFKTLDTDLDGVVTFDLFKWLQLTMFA

SMILES | k obs / 1 (Calpain 1 (Homo sapiens)) | k obs / 1 [1] | k obs / 1 [2] | IC50 (Calpain 1)
CC(C)CC(NC(=O)OCc1ccccc1)C(=O)NC(Cc1ccc(O)cc1)C(=O)COC(=O)c1c(F)cccc1F (stereo unspecified) | 7000 M⁻¹ s⁻¹ | – | – | –
CC(C)CC(NC(=O)[C@@H](C)NC(=O)OCc1ccccc1)C(=O)NC(Cc1ccccc1)C(=O)COC(=O)c1c(F)cccc1F (stereo partly specified) | 31000 M⁻¹ s⁻¹ | 100 M⁻¹ s⁻¹ | 300 M⁻¹ s⁻¹ | –
CC(C)C[C@H](NC(=O)CNC(=O)OCc1ccccc1)C(=O)N[C@@H](Cc1ccccc1)C(=O)CCl (Cbz-Gly-Leu-Phe-CH2Cl) | 3300 M⁻¹ s⁻¹ | 2700 M⁻¹ s⁻¹ | – | –
O=C(CNC(=O)OCc1ccccc1)NC(Cc1ccccc1)C(=O)COC(=O)c1c(Cl)cccc1Cl (stereo unspecified) | 700 M⁻¹ s⁻¹ | – | – | –
CC(C)C[C@H](NC(=O)OCc1ccccc1)C(=O)N[C@@H](Cc1ccc(O)cc1)C(=O)CBr | < 500 M⁻¹ s⁻¹ | 50 M⁻¹ s⁻¹ | – | –
CC(C)CC(NC(=O)OCc1ccccc1)C(=O)NCC(=O)COC(=O)c1c(Cl)ccc(S(=O)(=O)N2CCOCC2)c1Cl (stereo unspecified) | 23000 M⁻¹ s⁻¹ | 260000 M⁻¹ s⁻¹ | 160000 M⁻¹ s⁻¹ | –
CC(C)CC(NC(=O)OCc1ccccc1)C(=O)NC(C)C(=O)CCl (stereo unspecified) | 6000 M⁻¹ s⁻¹ | 43000 M⁻¹ s⁻¹ | – | –
CC(=O)Nc1cccc(Cl)c1C(=O)OCC(=O)CNC(=O)C(CC(C)C)NC(=O)OCc1ccccc1 (stereo unspecified) | 600 M⁻¹ s⁻¹ | – | – | –
CC(C)CC(C(=O)NC(Cc1ccccc1)C(=O)COC(=O)c1c(F)cccc1F)N(C)C(=O)OCc1ccccc1 (stereo unspecified) | < 500 M⁻¹ s⁻¹ | – | – | –
CC(C)CC(NC(=O)OCc1ccccc1)C(=O)NC(Cc1ccccc1)C(=O)COC(=O)c1c(Cl)ccc(S(=O)(=O)CCN2CCOCC2)c1Cl (stereo unspecified) | 30000 M⁻¹ s⁻¹ | 80 M⁻¹ s⁻¹ | 38000 M⁻¹ s⁻¹ | –
CC(C)C[C@H](NC(=O)[C@H](C)NC(=O)OCc1ccccc1)C(=O)N[C@@H](Cc1ccccc1)C(=O)COC(=O)c1c(F)cccc1F | 19000 M⁻¹ s⁻¹ | 2200 M⁻¹ s⁻¹ | 1600 M⁻¹ s⁻¹ | –
CC(C)C[C@H](NC(=O)OCc1ccccc1)C(=O)N[C@H](C=O)Cc1ccc(O)cc1 (Cbz-Leu-Tyr-aldehyde) | – | – | – | 20 nM
CC(C)CC(NC(=O)[C@@H](Cc1ccccc1)NC(=O)OCc1ccccc1)C(=O)NC(Cc1ccccc1)C(=O)COC(=O)c1c(F)cccc1F (stereo partly specified) | 1000 M⁻¹ s⁻¹ | 100 M⁻¹ s⁻¹ | 100 M⁻¹ s⁻¹ | –
O=C(CNC(=O)OCc1ccccc1)NC(Cc1ccccc1)C(=O)COC(=O)c1c(Cl)ccc(S(=O)(=O)NCC(=O)OCc2ccccc2)c1Cl (stereo unspecified) | 900 M⁻¹ s⁻¹ | – | – | –
CC(C)CC(NC(=O)CNC(=O)OCc1ccccc1)C(=O)NC(Cc1ccccc1)C(=O)COC(=O)c1c(F)cccc1F (stereo unspecified) | 15000 M⁻¹ s⁻¹ | 800 M⁻¹ s⁻¹ | 14000 M⁻¹ s⁻¹ | –
Cc1cccc(C)c1C(=O)OCC(=O)C(Cc1ccccc1)NC(=O)C(NC(=O)OCc1ccccc1)C(C)C (stereo unspecified) | 700 M⁻¹ s⁻¹ | – | – | –
CC(C)(C)C(NC(=O)OCc1ccccc1)C(=O)N[C@H](C=O)Cc1ccccc1 (stereo partly specified) (Cbz-[ξTle]-Phe-aldehyde) | – | – | – | 500 nM
O=C(CNC(=O)C(Cc1ccccc1)NC(=O)OCc1ccccc1)COC(=O)c1c(Cl)cccc1Cl (stereo unspecified) | < 500 M⁻¹ s⁻¹ | – | – | –
CC(C)[C@H](NC(=O)OCc1ccccc1)C(=O)N[C@H](C=O)Cc1ccc(O)cc1 (Cbz-Val-Tyr-aldehyde) | – | – | – | 25 nM
O=C(N[C@@H](Cc1ccccc1)C(=O)N[C@@H](Cc1ccccc1)C(=O)CCl)OCc1ccccc1 (Cbz-Phe-Phe-CH2Cl) | < 500 M⁻¹ s⁻¹ | – | – | –
CC(NC(=O)C(Cc1ccccc1)NC(=O)OCc1ccccc1)C(=O)COC(=O)c1c(Cl)cccc1Cl (stereo unspecified) | < 500 M⁻¹ s⁻¹ | 360000 M⁻¹ s⁻¹ | 104000 M⁻¹ s⁻¹ | –

SMILES | k obs / 1 (Calpain 1 (Homo sapiens)) | k obs / 1 [1] | k obs / 1 [2] | IC50 (Calpain 1)
CC(C)C[C@H](NC(=O)[C@@H]1CCCN1C(=O)OCc1ccccc1)C(=O)N[C@@H](Cc1ccccc1)C(=O)COC(=O)c1c(F)cccc1F | 26500 M⁻¹ s⁻¹ | 11000 M⁻¹ s⁻¹ | – | –
CC(C)C(NC(=O)OCc1ccccc1)C(=O)NC(Cc1ccccc1)C(=O)COC(=O)c1c(Cl)ccc(S(=O)(=O)CCN2CCOCC2)c1Cl (stereo unspecified) | 20000 M⁻¹ s⁻¹ | 5500 M⁻¹ s⁻¹ | 63000 M⁻¹ s⁻¹ | –
CC(C)C(NC(=O)OCc1ccccc1)C(=O)NCC(=O)COC(=O)c1c(Cl)ccc(S(=O)(=O)NCC(=O)OCc2ccccc2)c1Cl (stereo unspecified) | 12000 M⁻¹ s⁻¹ | 600000 M⁻¹ s⁻¹ | 120000 M⁻¹ s⁻¹ | –
COc1ccc(C[C@@H](C=O)NC(=O)[C@@H](NC(=O)OCc2ccccc2)C(C)C)cc1 (Cbz-Val-Tyr(Me)-aldehyde) | – | – | – | 30 nM
CC(C)CC(NC(=O)OCc1ccccc1)C(=O)NC(Cc1ccccc1)C(=O)COC(=O)c1c(Cl)cccc1Cl (stereo unspecified) | 11000 M⁻¹ s⁻¹ | 250 M⁻¹ s⁻¹ | 2700 M⁻¹ s⁻¹ | –
O=C[C@H](Cc1ccccc1)NC(=O)[C@H](Cc1ccccc1)NC(=O)OCc1ccccc1 (Cbz-Phe-Phe-aldehyde) | – | – | – | 400 nM
CC(C)CC(NC(=O)OCc1ccccc1)C(=O)NC(Cc1ccccc1)C(=O)COC(=O)c1c(Cl)ccc(S(=O)(=O)N2CCOCC2)c1Cl (stereo unspecified) | 17000 M⁻¹ s⁻¹ | – | – | –
CC(C)[C@H](NC(=O)OCc1ccccc1)C(=O)N[C@H](C=O)CCc1ccccc1 (Cbz-Val-[hPhe]-aldehyde) | – | – | – | 100 nM
CC(C)(C)C[C@H](NC(=O)OCc1ccccc1)C(=O)N[C@H](C=O)Cc1ccccc1 (Cbz-[tBuAla]-Phe-aldehyde) | – | – | – | 100 nM
CC(C)CC(NC(=O)OCc1ccccc1)C(=O)NCC(=O)CCl (stereo unspecified) (Cbz-[ξL]-Gly-CH2Cl) | 31000 M⁻¹ s⁻¹ | 170000 M⁻¹ s⁻¹ | 500000 M⁻¹ s⁻¹ | –
CC(C)CC(NC(=O)[C@@H](C)NC(=O)OCc1ccccc1)C(=O)NCC(=O)COC(=O)c1c(Cl)ccc(OCCN2CCOCC2)c1Cl (stereo partly specified) | < 500 M⁻¹ s⁻¹ | – | – | –
CC(C)C[C@H](NC(=O)OCc1ccccc1)C(=O)N[C@@H](CC(C)C)C(=O)N[C@@H](Cc1ccccc1)C(=O)CCl (Cbz-Leu-Leu-Phe-CH2Cl) | 9500 M⁻¹ s⁻¹ | 30000 M⁻¹ s⁻¹ | – | –
CC(NC(=O)C(Cc1ccccc1)NC(=O)OCc1ccccc1)C(=O)COC(=O)c1c(Cl)ccc(OCCN2CCOCC2)c1Cl (stereo unspecified) | < 500 M⁻¹ s⁻¹ | 150000 M⁻¹ s⁻¹ | 180000 M⁻¹ s⁻¹ | –
CC(C)C(NC(=O)OCc1ccccc1)C(=O)NCC(=O)COC(=O)c1c(Cl)cccc1Cl (stereo unspecified) | 800 M⁻¹ s⁻¹ | – | – | –
CC(C)[C@H](NC(=O)OCc1ccccc1)C(=O)N1CCC[C@H]1C=O (Cbz-Val-Pro-aldehyde) | – | – | – | > 1000 nM
CC(C)CC(NC(=O)OCc1ccccc1)C(=O)NCC(=O)COC(=O)c1c(Cl)ccc(OCCN2CCOCC2)c1Cl (stereo unspecified) | 6000 M⁻¹ s⁻¹ | – | – | –
CC(C)[C@H](NC(=O)OCc1ccccc1)C(=O)N[C@H](C=O)Cc1cccc2ccccc12 (Cbz-Val-[1Nal]-aldehyde) | – | – | – | 100 nM
CC(C)CC(NC(=O)OCc1ccccc1)C(=O)NC(Cc1ccccc1)C(=O)COC(=O)c1c(F)cccc1F (stereo unspecified) | 9000 M⁻¹ s⁻¹ | – | – | –
COC(=O)N[C@H](C)C(=O)NC(CC(C)C)C(=O)NC(Cc1ccccc1)C(=O)COC(=O)c1c(F)cccc1F (stereo partly specified) | 1400 M⁻¹ s⁻¹ | 700 M⁻¹ s⁻¹ | 400 M⁻¹ s⁻¹ | –
CC(C)C[C@H](NC(=O)OCc1ccccc1)C(=O)N[C@H](C=O)Cc1ccccc1 (Cbz-Leu-Phe-aldehyde) | – | – | – | 35 nM
CC(C)CC(NC(=O)OCc1ccccc1)C(=O)NC(Cc1ccccc1)C(=O)CCl (stereo not drawn) (Cbz-Leu-Phe-CH2Cl; configuration not given here) | 5500 M⁻¹ s⁻¹ | 2500 M⁻¹ s⁻¹ | – | –

SMILES | k obs / 1 (Calpain 1 (Homo sapiens)) | k obs / 1 [1] | k obs / 1 [2] | IC50 (Calpain 1)
CC(C)CC(NC(=O)OCc1ccccc1)C(=O)NC(C)C(=O)COC(=O)c1c(Cl)ccc(OCCN2CCOCC2)c1Cl (stereo unspecified) | 6000 M⁻¹ s⁻¹ | 58000 M⁻¹ s⁻¹ | – | –
CC(C)CC(NC(=O)OCc1ccccc1)C(=O)NC(C)C(=O)COC(=O)c1c(Cl)ccc(S(=O)(=O)N2CCOCC2)c1Cl (stereo unspecified) | 14000 M⁻¹ s⁻¹ | – | – | –
CC(C)CC(NC(=O)OCc1ccccc1)C(=O)NC(Cc1ccc(O)cc1)C(=O)CCl (stereo not drawn) (Cbz-Leu-Tyr-CH2Cl; configuration not given here) | 1500 M⁻¹ s⁻¹ | 2000 M⁻¹ s⁻¹ | – | –
NC(=O)CC(NC(=O)OCc1ccccc1)C(=O)NC(Cc1ccccc1)C(=O)CCl (stereo not drawn) (Cbz-Asn-Phe-CH2Cl; configuration not given here) | 600 M⁻¹ s⁻¹ | 3000 M⁻¹ s⁻¹ | – | –
CC(NC(=O)C(Cc1ccccc1)NC(=O)OCc1ccccc1)C(=O)CCl (stereo unspecified) | < 500 M⁻¹ s⁻¹ | 220000 M⁻¹ s⁻¹ | – | –
Cc1ccc(S(=O)(=O)NC(CC(C)C)C(=O)NC(Cc2ccccc2)C(=O)COC(=O)c2c(F)cccc2F)cc1 (stereo unspecified) | 1500 M⁻¹ s⁻¹ | – | – | –
CC(C)CC(NC(=O)[C@@H](C)NC(=O)OCc1ccccc1)C(=O)NC(Cc1ccccc1)C(=O)COC(=O)c1c(Cl)ccc(OCCN2CCOCC2)c1Cl (stereo partly specified) | 32000 M⁻¹ s⁻¹ | 400 M⁻¹ s⁻¹ | 28000 M⁻¹ s⁻¹ | –
CC(C)CC(NC(=O)OCc1ccccc1)C(=O)NC(Cc1ccc(O)cc1)C(=O)COC(=O)c1c(Cl)ccc(S(=O)(=O)N2CCOCC2)c1Cl (stereo unspecified) | 14000 M⁻¹ s⁻¹ | – | – | –
CCC(C)[C@H](NC(=O)OCc1ccccc1)C(=O)N[C@H](C=O)Cc1ccc(O)cc1 (stereo partly specified) (Cbz-[Ile(3ξ)]-Tyr-aldehyde) | – | – | – | 55 nM
CC(=O)Nc1cccc(Cl)c1C(=O)OCC(=O)C(C)NC(=O)C(CC(C)C)NC(=O)OCc1ccccc1 (stereo unspecified) | 500 M⁻¹ s⁻¹ | – | – | –
O=C[C@H](Cc1ccccc1)NC(=O)[C@H](CCc1ccccc1)NC(=O)OCc1ccccc1 (Cbz-[hPhe]-Phe-aldehyde) | – | – | – | 270 nM
O=C[C@H](Cc1ccccc1)NC(=O)[C@H](Cc1cccc2ccccc12)NC(=O)OCc1ccccc1 (Cbz-[1Nal]-Phe-aldehyde) | – | – | – | > 1000 nM
CC(C)CC(NC(=O)OCc1ccccc1)C(=O)NC(Cc1ccc(O)cc1)C(=O)COC(=O)c1c(Cl)cccc1Cl (stereo unspecified) | 28000 M⁻¹ s⁻¹ | 1600 M⁻¹ s⁻¹ | 33000 M⁻¹ s⁻¹ | –
CC(C)CC(NC(=O)OC(C)(C)C)C(=O)NC(Cc1ccccc1)C(=O)COC(=O)c1c(F)cccc1F (stereo unspecified) | 8000 M⁻¹ s⁻¹ | – | – | –
CC(C)CC(NC(=O)OCc1ccccc1)C(=O)NC(Cc1ccc(O)cc1)C(=O)COC(=O)c1c(Cl)ccc(S(=O)(=O)CCN2CCOCC2)c1Cl (stereo unspecified) | 54000 M⁻¹ s⁻¹ | 2600 M⁻¹ s⁻¹ | 50000 M⁻¹ s⁻¹ | –
CC(C)C(NC(=O)OCc1ccccc1)C(=O)NC(Cc1ccccc1)C(=O)COC(=O)c1c(Cl)cccc1Cl (stereo unspecified) | 11000 M⁻¹ s⁻¹ | – | – | –
O=C[C@H](Cc1ccccc1)NC(=O)C(NC(=O)OCc1ccccc1)c1ccccc1 (stereo partly specified) (Cbz-[ξPhg]-Phe-aldehyde) | – | – | – | 100 nM
CC(NC(=O)OCc1ccccc1)C(=O)NCC(=O)COC(=O)c1c(Cl)cccc1Cl (stereo unspecified) | < 500 M⁻¹ s⁻¹ | – | – | –
COC(=O)N[C@H](C)C(=O)NC(CC(C)C)C(=O)NC(Cc1ccccc1)C(=O)COC(=O)c1c(Cl)ccc(OCCN2CCOCC2)c1Cl (stereo partly specified) | 43000 M⁻¹ s⁻¹ | 4700 M⁻¹ s⁻¹ | 90000 M⁻¹ s⁻¹ | –
CC(C)CC(NC(=O)OCc1ccccc1)C(=O)NCC(=O)COC(=O)c1c(Cl)cccc1Cl (stereo unspecified) | 6000 M⁻¹ s⁻¹ | – | – | –
